pIC50: −log10 of the molar value. Where “and” joins values, the source holds several entries; their conditions need not be identical. Equal entries are not always repeated.
System: 186277-243-T-J2-PDC complex spheroid viability
Test: Anticancer human tumor 186277-243-T-J2-PDC patient-derived colon adenocarcinoma cell line growth inhibition [GQUAD]
Conditions: for viability, T/C: stronger effect = lower value
From the text: DNA G-quadruplex Stabilizer Agents in Combinations in Complex Spheroids
A high-throughput screen of multi-cell type tumor spheroids was designed to identify active combinations of DNA G-quadruplex stabilizer agents and targeted small molecules. Complex spheroids include a stromal component modeled by human endothelial cells (HUVEC) and fibroblasts modeled by human mesenchymal stem cells (MSCs). The concentration ranges selected for each drug and investigational agent were based upon clinically achievable concentrations if the clinical Cmax of the agent was known.
Compounds. The drugs and investigational agents: pidnarulex (CX-5461; NSC782164), APTO-253 (NSC789042), BRACO-19 (NSC847499), peposertib (NSC802822), ceralasertib (NSC780249), elimusertib (NSC800525), camonsertib (NSC841442), AZD-1390 (NSC803789), olaparib (NSC753686), talazoparib (NSC767125), ART-558 (NSC835418), sotorasib (NSC818433), MRTX-1133 (NSC836407), SN-38 (NSC673596), topotecan (NSC609699), etoposide (NSC141540), doxorubicin (NSC123127), gemcitabine (NSC613327), 5-fluorouracil (NSC19893), paclitaxel (NSC125973), vemurafenib (NSC761431), panobinostat (NSC761190), R-306465 (JNJ-16241199; NSC773264), adavosertib (NSC754352), TP-3654 (NSC805149), carboplatin (NSC241240), KSQ-4279 (NSC840948), and staurosporine (NSC755774) were obtained from the National Cancer Institute (NCI) Developmental Therapeutics Program Chemical Repository (34). The FDA-approved anticancer drug set is available from the NCI Developmental Therapeutics Program. […] The stock solutions were prepared in dimethyl sulfoxide (DMSO, Sigma-Aldrich, St. Louis, MO, cat. D2650) at 800-fold the tested concentration and stored at -70 degrees C prior to their use. All drugs and investigational agents were tested over a range starting from a high concentration at or near the clinical Cmax and decreasing in half-log increments. If the clinical Cmax for an agent had not been determined, the highest concentration tested was 10 microM.
2.3 Cell Culture. All cells were maintained in an incubator at 37 degrees C and 5% CO2 with 95% humidity. The PDC lines were cultured according to standard operating procedures established by the NCI PDMR. All PDCs were thawed and cultured in Matrigel-coated flasks prepared with a working solution of 1X Ham's F-12 nutrient mix, without supplementation (Invitrogen, cat. 11765054), 100 U/mL penicillin-streptomycin (Invitrogen, cat. 15140122), and 2.5% Matrigel (Corning Inc., cat. 354248) for the first three passages. The 857933-349-R-J2-PDC line was cultured in 6C/Colon 1B media, which includes advanced DMEM/F-12 (Thermo Fisher Scientific, cat. 12634028), 10 mM HEPES (Thermo Fisher Scientific, cat. 15630080), 1X GlutaMAX supplement (Thermo Fisher Scientific, cat. 35050061), 0.1 mg/mL primocin (InvivoGen, cat. ant-pm-2), 10% defined fetal bovine serum, heat inactivated (HyClone Laboratories Inc., cat. SH30070.03HI), 50% L-WRN conditioned media (ATCC, cat. CRL-3276), 1.25 mM N-Acetyl-L-cysteine (Sigma-Aldrich, cat. A9165), 10 mM nicotinamide (Sigma-Aldrich, cat. N0636), 1X B-27 supplement (Thermo Fisher Scientific, cat. 17504044), 1X N-2 supplement (Thermo Fisher Scientific, cat. 17502048), 10 microM Y-27632 dihydrochloride (Tocris Bioscience, cat. 1254), and 50 ng/mL human EGF recombinant protein (Thermo Fisher Scientific, cat. PHG0311). The 485176-168-R4-J1-PDC line was cultured in Panc media, which includes all 6C/Colon 1B media components plus 100 ng/mL human FGF-10 (Thermo Fisher Scientific, cat. 100-26), 500 nM SB-431542 (Selleckchem, cat. S1067), and gastrin (Tocris, cat. 3006).
[…]
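Further: spheroids exposed to drugs for 7 days.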
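Wherever viability, T/C is given: 100% = DMSO vehicle control viability.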

| pIC50 (curve of compound) | pIC50 (compound alone, run of 04/22/2024) | Compound | viability, T/C (compound 0.0316 µM) | viability, T/C (compound 0.1 µM) | viability, T/C (compound 0.316 µM) | viability, T/C (compound 1 µM) | viability, T/C (compound 3.16 µM) | viability, T/C (compound 10 µM) | viability, T/C (compound 0.000999 µM) | viability, T/C (compound 0.00316 µM) | viability, T/C (compound 0.00999 µM) | viability, T/C (compound 0.0999 µM) |
| --- | --- | --- | --- | --- | --- | --- | --- | --- | --- | --- | --- | --- |
| 6.86 and 7.15 and 7.11 |  | C#Cc1c(F)ccc2cc(O)cc(-c3ncc4c(N5CC6CCC(C5)N6)nc(OCC56CCCN5CC(F)C6)nc4c3F)c12 (centres undefined) | 99.9% and 94.8% and 64% | 59.1% and 30.1% and 46.2% | 26% and 13.2% and 19.2% | 14.4% and 7.76% and 10.2% | 17.8% and 7.17% and 7.07% | 10.2% and 5.44% and 5.48% |  |  |  |  |
| < 5.00 |  | C=CC(=O)N1CCN(c2nc(=O)n(-c3c(C)ccnc3C(C)C)c3nc(-c4c(O)cccc4F)c(F)cc23)C(C)C1 (centres undefined) | 91.3% and 93.7% and 101% | 82.3% and 102% and 89.8% | 94% and 91.1% and 104% | 108% and 96.1% and 91.2% | 92.6% and 117% and 98% | 87.6% and 78.8% and 95.7% |  |  |  |  |
| 6.80 and 6.74 and 6.76 |  | C=CCn1c(=O)c2cnc(Nc3ccc(N4CCN(C)CC4)cc3)nc2n1-c1cccc(C(C)(C)O)n1 | 117% and 101% and 93.2% | 73.4% and 86.2% and 76.1% | 13.5% and 16.9% and 22.7% | 9.12% and 11.3% and 11.6% | 8.45% and 9.04% and 11% | 10.8% and 11.9% and 14.4% |  |  |  |  |
| > 7.50 |  | CC(=O)O[C@H]1C(=O)[C@@]2(C)[C@H]([C@H](OC(=O)c3ccccc3)[C@]3(O)C[C@H](OC(=O)[C@H](O)[C@@H](NC(=O)c4ccccc4)c4ccccc4)C(C)=C1C3(C)C)[C@]1(OC(C)=O)CO[C@@H]1C[C@@H]2O | 11.9% and 17.4% and 29% | 4.45% and 7.62% and 9.72% | 5.05% and 6.94% and 9.26% | 5.03% and 4.51% and 8.19% | 4.85% and 4.62% and 5.67% | 4.7% and 4.26% and 6.48% |  |  |  |  |
| 5.20 and 5.52 and < 5.00 |  | CC(C)(O)C1CCC(Nc2ccc3ncc(-c4cccc(C(F)(F)F)c4)n3n2)CC1 (centres undefined) | 82.3% and 96.5% and 103% | 106% and 97.7% and 92.2% | 101% and 99.8% and 99.6% | 83.7% and 85.5% and 105% | 55.3% and 49% and 56.7% | 46.4% and 46% and 50% |  |  |  |  |
| < 5.00 |  | CC(C)n1c(=O)n(C)c2cnc3cc(F)c(-c4ccc(OCCCN5CCCCC5)nc4)cc3c21 | 99.3% and 98.7% and 80.8% | 90.1% and 89.8% and 84.8% | 106% and 104% and 82.1% | 96.6% and 119% and 84.2% | 104% and 106% and 97.2% | 89.4% and 101% and 76% |  |  |  |  |
| 7.27 and 7.31 and 7.35 |  | CC1COCCN1c1cc(-c2ccnn2C)c2ccnc(-c3ccn[nH]3)c2n1 (centres undefined) | 81.1% and 73.3% and 66.4% | 12.5% and 11.9% and 12.3% | 7.41% and 7.05% and 7.85% | 5.96% and 5.12% and 5.67% | 5.8% and 4.75% and 4.94% | 7.05% and 4.45% and 5.66% |  |  |  |  |
| 7.36 and 7.34 and 7.48 |  | CC1COCCN1c1cc(C2(O)CC3CCC(C2)O3)c2cnn(-c3ccn[nH]3)c2n1 (centres undefined) | 64.6% and 66.1% and 52.2% | 13.1% and 14.8% and 10% | 7.61% and 5.43% and 6.02% | 4.72% and 5.45% and 4.44% | 4.67% and 5.36% and 4.31% | 3.02% and 2.97% and 3.42% |  |  |  |  |
| 5.97 and 6.11 and 6.00 |  | CC1COCCN1c1cc(C2(S(C)(=N)=O)CC2)nc(-c2ccnc3[nH]ccc23)n1 (centres undefined) | 98.7% and 91.8% and 97.2% | 84.2% and 100% and 98.6% | 102% and 104% and 95.6% | 52.7% and 36.2% and 49% | 18.2% and 7.52% and 14.2% | 6.83% and 5.23% and 6.65% |  |  |  |  |
| 5.20 and 5.21 and 5.24 |  | CCCS(=O)(=O)Nc1ccc(F)c(C(=O)c2c[nH]c3ncc(-c4ccc(Cl)cc4)cc23)c1F | 111% and 99.7% and 103% | 114% and 101% and 82.2% | 91.7% and 97.9% and 81.8% | 92.4% and 78.4% and 81.4% | 94.7% and 87.6% and 78.3% | 22.4% and 25.9% and 24.6% |  |  |  |  |
| < 6.50 and 6.98 and 6.64 |  | CC[C@@]1(O)C(=O)OCc2c1cc1n(c2=O)Cc2cc3c(CN(C)C)c(O)ccc3nc2-1 | 87.6% and 77.7% and 96.6% |  | 50.6% and 42.9% and 46.2% |  |  |  | 105% and 97.5% and 100% | 97.5% and 99.2% and 96.2% | 97.4% and 111% and 103% | 72.4% and 55.3% and 59.9% |
| 8.01 and 8.15 and 8.11 |  | CCc1c2c(nc3ccc(O)cc13)-c1cc3c(c(=O)n1C2)COC(=O)[C@]3(O)CC | 30.8% and 29.4% and 34.3% |  | 18.9% and 11.2% and 16.2% |  |  |  | 88.2% and 83.6% and 97.2% | 72.1% and 57.3% and 65.1% | 50.2% and 50.4% and 45.2% | 21.3% and 14.5% and 21.4% |
|  | < 5.00 | CN(C)c1ccc(Nc2c3ccc(NC(=O)CCN4CCCC4)cc3nc3cc(NC(=O)CCN4CCCC4)ccc23)cc1 |  | 97.8% [middle of 12 runs] | 101% [middle of 12 runs] | 101% [middle of 12 runs] |  | 99.7% [middle of 12 runs] |  |  |  |  |

— PubChem BioAssay AID2060512 (Molecular Pharmacology Branch, DTP, NCI, 2025)
